Test system: c-Myc
Experiment: c-Myc immunofluorescence assay
Assay type: cell-based, human
Settings: A549 cells, 24 hours, anti-c-Myc immunofluorescence
Procedure, shortened: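 Read-out is imaged c-Myc immunofluorescence, nucleus-segmented, in A549 lung carcinoma cells exposed to compound dose series for 24 h after 48 h growth. Fixation 4% paraformaldehyde, Triton permeabilization, antibody staining at room temperature; EC50 from logistic fit of signal versus concentration.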

Row | SMILES | Myc Efficacy (−LogEC50)
1 | COc1ccc(-c2noc(N3CCC(C(=O)NCC4CCN(C[C@@H]5CCCNC5)C4)CC3)n2)cc1 (stereo partly drawn) [Compound 412, 1-(3-(4-methoxyphenyl)-1,2,4-oxadiazol-5-yl)-N-((1-(((R)-piperidin-3-yl)methyl)pyrrolidin-3-yl)methyl)piperidine-4-carboxamide] | − (− ≤3)
2 | O=C(NCC1(CN2CCC(Cc3ccccn3)CC2)CC1)N1CCN(c2nc(-c3ccc(OC(F)(F)F)cc3)no2)CC1 [Compound 450, N-((1-((4-(pyridin-2-ylmethyl)piperidin-1-yl)methyl)cyclopropyl)methyl)-4-(3-(4-(trifluoromethoxy)phenyl)-1,2,4-oxadiazol-5-yl)piperazine-1-carboxamide] | ++ (++ ≥5 and <6)
3 | COc1ccc(-c2noc(N3CCC(C(=O)NCC4CCN(C[C@H]5CCCCN5)C4)CC3)n2)cc1 (stereo partly drawn) [Compound 415, 1-(3-(4-methoxyphenyl)-1,2,4-oxadiazol-5-yl)-N-((1-(((R)-piperidin-2-yl)methyl)pyrrolidin-3-yl)methyl)piperidine-4-carboxamide] | + (+ >3 and <5)
4 | COc1ccc(-c2noc(N3CCC(C(=O)NCC4CCN(C5CCCOC5)C4)CC3)n2)cc1 (centres unmarked) [Compound 396, 1-(3-(4-methoxyphenyl)-1,2,4-oxadiazol-5-yl)-N-((1-(tetrahydro-2H-pyran-3-yl)pyrrolidin-3-yl)methyl)piperidine-4-carboxamide] | + (+ >3 and <5)
5 | O=C(NCCCN1CCC(Cc2ccccc2)CC1)C1CCN(c2nc(-c3ccc(OC(F)(F)F)cc3)no2)CC1 [Compound 239, N-(3-(4-benzylpiperidin-1-yl)propyl)-1-(3-(4-(trifluoromethoxy)phenyl)-1,2,4-oxadiazol-5-yl)piperidine-4-carboxamide] | +++ (+++ ≥6)
6 | COc1ccc(-c2noc(N3CCC(C(=O)NCC4CCN(C(=O)c5ccc(C)cc5)C4)CC3)n2)cc1 (centres unmarked) [Compound 222, 1-(3-(4-methoxyphenyl)-1,2,4-oxadiazol-5-yl)-N-((1-(4-methylbenzoyl)pyrrolidin-3-yl)methyl)piperidine-4-carboxamide] | ++ (++ ≥5 and <6)
7 | COc1ccc(-c2noc(N3CCC(C(=O)NC4(C5CC5)CCOCC4)CC3)n2)cc1 [Compound 291, N-(4-cyclopropyltetrahydro-2H-pyran-4-yl)-1-(3-(4-methoxyphenyl)-1,2,4-oxadiazol-5-yl)piperidine-4-carboxamide] | + (+ >3 and <5)
8 | COc1ccc(-c2noc(N3CCC(C(=O)NCC4CCN(Cc5cc(C)co5)C4)CC3)n2)cc1 (centres unmarked) [Compound 382, 1-(3-(4-methoxyphenyl)-1,2,4-oxadiazol-5-yl)-N-((1-((4-methylfuran-2-yl)methyl)pyrrolidin-3-yl)methyl)piperidine-4-carboxamide] | ++ (++ ≥5 and <6)
9 | COc1ccc(-c2noc(N3CCC(c4nc5ccccc5[nH]4)CC3)n2)cc1 [Compound 214, 5-(4-(1H-benzo[d]imidazol-2-yl)piperidin-1-yl)-3-(4-methoxyphenyl)-1,2,4-oxadiazole] | + (+ >3 and <5)
10 | COc1cccc(-c2noc(N3CCC(C(=O)NCC4CCN(Cc5ccc(C)cc5)C4)CC3)n2)c1 (centres unmarked) [Compound 187, 1-(3-(3-methoxyphenyl)-1,2,4-oxadiazol-5-yl)-N-((1-(4-methylbenzyl)pyrrolidin-3-yl)methyl)piperidine-4-carboxamide] | ++ (++ ≥5 and <6)
11 | COc1ccc(-c2noc(N3CCC(C(=O)NCc4cc(C)ccc4F)CC3)n2)cc1 [Compound 311, N-(2-fluoro-5-methylbenzyl)-1-(3-(4-methoxyphenyl)-1,2,4-oxadiazol-5-yl)piperidine-4-carboxamide] | − (− ≤3)
12 | O=C(NCCCN1CCC(Cc2ccccn2)CC1)N1CCN(c2nc(-c3ccc(F)cc3)no2)CC1 [Compound 430, 4-(3-(4-fluorophenyl)-1,2,4-oxadiazol-5-yl)-N-(3-(4-(pyridin-2-ylmethyl)piperidin-1-yl)propyl)piperazine-1-carboxamide] | +++ (+++ ≥6)
13 | CCCCN(CC)CCNC(=O)C1CCN(c2nc(-c3ccc(OC)cc3)no2)CC1 [Compound 119, N-(2-(butyl(ethyl)amino)ethyl)-1-(3-(4-methoxyphenyl)-1,2,4-oxadiazol-5-yl)piperidine-4-carboxamide] | + (+ >3 and <5)
14 | COc1ccc(-c2noc(C3CCC(C(=O)NCC4CC(=O)N(Cc5ccccc5)C4)CC3)n2)cc1 (centres unmarked) [Compound 176, (1s,4s)-N-((1-benzyl-5-oxopyrrolidin-3-yl)methyl)-4-(3-(4-methoxyphenyl)-1,2,4-oxadiazol-5-yl)cyclohexane-1-carboxamide] | + (+ >3 and <5)
15 | COc1ccc(-c2noc(N3CCC(C(=O)NCC4CCN(Cc5ccc(C)o5)C4)CC3)n2)cc1 (centres unmarked) [Compound 379, 1-(3-(4-methoxyphenyl)-1,2,4-oxadiazol-5-yl)-N-((1-((5-methylfuran-2-yl)methyl)pyrrolidin-3-yl)methyl)piperidine-4-carboxamide] | ++ (++ ≥5 and <6)
16 | COc1ccc(-c2noc(N3CCC(C(=O)NC(C)C4CCCCO4)CC3)n2)cc1 (centres unmarked) [Compound 313, 1-(3-(4-methoxyphenyl)-1,2,4-oxadiazol-5-yl)-N-(1-(tetrahydro-2H-pyran-2-yl)ethyl)piperidine-4-carboxamide] | − (− ≤3)
17 | COc1ccc(-c2noc(N3CCC(C(=O)NCC4CCN(Cc5cnsc5)C4)CC3)n2)cc1 (centres unmarked) [Compound 373, N-((1-(isothiazol-4-ylmethyl)pyrrolidin-3-yl)methyl)-1-(3-(4-methoxyphenyl)-1,2,4-oxadiazol-5-yl)piperidine-4-carboxamide] | ++ (++ ≥5 and <6)
18 | COc1ccc(-c2noc(N3CCC(C(=O)NCC4CCN(C5CCOC(C)C5)C4)CC3)n2)cc1 (centres unmarked) [Compound 402, 1-(3-(4-methoxyphenyl)-1,2,4-oxadiazol-5-yl)-N-((1-(2-methyltetrahydro-2H-pyran-4-yl)pyrrolidin-3-yl)methyl)piperidine-4-carboxamide] | + (+ >3 and <5)
19 | COc1ccc(-c2noc(N3CCC(C(=O)NCC4CCN(Cc5cccnc5)C4)CC3)n2)cc1 (centres unmarked) [Compound 356, 1-(3-(4-methoxyphenyl)-1,2,4-oxadiazol-5-yl)-N-((1-(pyridin-3-ylmethyl)pyrrolidin-3-yl)methyl)piperidine-4-carboxamide] | ++ (++ ≥5 and <6)
20 | COc1ccc(-c2noc(N3CCC(C(=O)NCC4CCN(Cc5ccncc5F)C4)CC3)n2)cc1 (centres unmarked) [Compound 359, N-((1-((3-fluoropyridin-4-yl)methyl)pyrrolidin-3-yl)methyl)-1-(3-(4-methoxyphenyl)-1,2,4-oxadiazol-5-yl)piperidine-4-carboxamide] | ++ (++ ≥5 and <6)
21 | COc1ccc(-c2noc(N3CCC(C(=O)NCC4CCN(Cc5ccc(C)cc5)C4)CC3)n2)cc1 (centres unmarked) [Compound 105, 1-(3-(4-methoxyphenyl)-1,2,4-oxadiazol-5-yl)-N-((1-(4-methylbenzyl)pyrrolidin-3-yl)methyl)piperidine-4-carboxamide] | ++ (++ ≥5 and <6)
22 | COc1ccc(-c2noc(N3CCN(C(=O)c4cccc(CN5CCCCC5)c4)CC3)n2)cc1 [Compound 236, (4-(3-(4-methoxyphenyl)-1,2,4-oxadiazol-5-yl)piperazin-1-yl)(3-(piperidin-1-ylmethyl)phenyl)methanone] | ++ (++ ≥5 and <6)
23 | COc1ccc(-c2noc(N3CCC(C(=O)NC4CC(O)C4(C)C)CC3)n2)cc1 (centres unmarked) [Compound 294, N-(3-hydroxy-2,2-dimethylcyclobutyl)-1-(3-(4-methoxyphenyl)-1,2,4-oxadiazol-5-yl)piperidine-4-carboxamide] | + (+ >3 and <5)
24 | COc1ccc(-c2noc(N3CCC(C(=O)NCC4CCN(C5CCCOCC5)C4)CC3)n2)cc1 (centres unmarked) [Compound 400, 1-(3-(4-methoxyphenyl)-1,2,4-oxadiazol-5-yl)-N-((1-(oxepan-4-yl)pyrrolidin-3-yl)methyl)piperidine-4-carboxamide] | + (+ >3 and <5)
25 | COc1ccc(-c2noc(N3CCC(C(=O)NCC4CCN(Cc5cncc(F)c5)C4)CC3)n2)cc1 (centres unmarked) [Compound 333, N-((1-((5-fluoropyridin-3-yl)methyl)pyrrolidin-3-yl)methyl)-1-(3-(4-methoxyphenyl)-1,2,4-oxadiazol-5-yl)piperidine-4-carboxamide] | + (+ >3 and <5)
26 | COc1ccc(-c2noc(N3CCC(C(=O)NCC4CCN(Cc5cnc(C)s5)C4)CC3)n2)cc1 (centres unmarked) [Compound 388, 1-(3-(4-methoxyphenyl)-1,2,4-oxadiazol-5-yl)-N-((1-((2-methylthiazol-5-yl)methyl)pyrrolidin-3-yl)methyl)piperidine-4-carboxamide] | ++ (++ ≥5 and <6)
27 | COc1ccc(-c2noc(N3CCC(C(=O)NCC4CCN(C(C)(C)C)C4)CC3)n2)cc1 (centres unmarked) [Compound 250, N-((1-(tert-butyl)pyrrolidin-3-yl)methyl)-1-(3-(4-methoxyphenyl)-1,2,4-oxadiazol-5-yl)piperidine-4-carboxamide] | + (+ >3 and <5)
28 | COc1ccc(-c2noc(N3CCC(C(=O)Nc4ccccc4Cl)CC3)n2)cc1 [Compound 224, N-(2-chlorophenyl)-1-(3-(4-methoxyphenyl)-1,2,4-oxadiazol-5-yl)piperidine-4-carboxamide] | + (+ >3 and <5)
29 | C#Cc1cccc(CN2CCC(CNC(=O)C3CCN(c4nc(-c5ccc(OC)cc5)no4)CC3)C2)c1 (centres unmarked) [Compound 324, N-((1-(3-ethynylbenzyl)pyrrolidin-3-yl)methyl)-1-(3-(4-methoxyphenyl)-1,2,4-oxadiazol-5-yl)piperidine-4-carboxamide] | ++ (++ ≥5 and <6)
